A value given as a limit tells only on which side of the number the result lay.

In the first assay the target is memapsin 2 (Homo sapiens, UniProt P56817). Put plainly: Inhibition of memapsin 2 beta-secretase activity toward fluorogenic substrate FS-2. In kind it is biochemical. As to conditions: pH 4, 37° C., 20 minutes pre-incubation, fluorogenic substrate FS-2, tight-binding model; read-out: M2 Ki.
Chain of memapsin 2 (Homo sapiens, UniProt P56817) (P56817 46-501): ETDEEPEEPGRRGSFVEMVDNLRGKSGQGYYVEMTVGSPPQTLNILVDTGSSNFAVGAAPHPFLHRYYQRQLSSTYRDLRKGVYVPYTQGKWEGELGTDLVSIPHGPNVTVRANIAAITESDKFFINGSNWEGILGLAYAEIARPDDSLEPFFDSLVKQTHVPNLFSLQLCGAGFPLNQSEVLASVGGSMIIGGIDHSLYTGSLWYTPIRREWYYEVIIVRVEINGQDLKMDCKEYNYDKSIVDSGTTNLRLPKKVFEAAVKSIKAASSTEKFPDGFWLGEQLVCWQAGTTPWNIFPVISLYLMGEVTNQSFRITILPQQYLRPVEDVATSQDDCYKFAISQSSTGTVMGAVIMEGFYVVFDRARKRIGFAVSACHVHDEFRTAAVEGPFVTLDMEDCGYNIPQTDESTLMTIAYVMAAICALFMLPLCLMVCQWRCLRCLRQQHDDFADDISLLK
Description: Potency of compounds were determined by measurement of their inhibition of memapsin 2 activity toward a fluorescent substrate. […] Briefly, assays were performed at pH 4, 37° C., by pre-incubation of memapsin 2 enzyme with compound for 20 minutes. Activity measure was initiated by addition of a fluorogenic substrate FS-2 (Bachem Americas, Torrance, Calif.). Fluorescent signal increase over time was measured as a rate of hydrolysis of the peptide substrate.
On to `CCC(Cn1nc(C)cc1C)C(=O)NC(CNC(=O)OC(C)(C)C)C(=O)NC(CC(C)C)C(O)CC(C)C(=O)NC(C(=O)NCc1nc(C)cs1)C(C)C` (centres unmarked) [tert-butyl 2-(2-((3,5-dimethyl-1H-pyrazol-1-yl)methyl)butanamido)-3-(5-hydroxy-2,7-dimethyl-8-(3-methyl-1-((4-methylthiazol-2-yl)methylamino)-1-oxobutan-2-ylamino)-8-oxooctan-4-ylamino)-3-oxopropylcarbamate], for which the Ki was < 0.1 µM.

The next assay deals with T1, memapsin 2 (Cricetulus griseus, UniProt G3IAK4).
T1 construct: endogenous in cells; host or cells: Chinese hamster ovary cells over-expressing human APP695 (London + Swedish)
T1 sequence (G3IAK4 22-501): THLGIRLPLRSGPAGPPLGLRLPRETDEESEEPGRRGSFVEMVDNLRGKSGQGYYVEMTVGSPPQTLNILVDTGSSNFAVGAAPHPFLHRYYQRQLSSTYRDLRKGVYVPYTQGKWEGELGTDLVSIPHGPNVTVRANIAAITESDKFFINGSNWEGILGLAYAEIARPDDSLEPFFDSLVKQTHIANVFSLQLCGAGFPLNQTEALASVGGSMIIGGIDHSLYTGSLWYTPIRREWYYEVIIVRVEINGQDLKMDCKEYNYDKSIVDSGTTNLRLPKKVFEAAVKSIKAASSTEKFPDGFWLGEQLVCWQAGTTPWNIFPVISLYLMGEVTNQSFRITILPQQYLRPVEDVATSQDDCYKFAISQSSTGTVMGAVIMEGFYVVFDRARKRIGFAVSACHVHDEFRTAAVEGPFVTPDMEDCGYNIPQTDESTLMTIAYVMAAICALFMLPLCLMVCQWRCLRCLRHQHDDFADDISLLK
Briefly: Cellular Aβ IC50 determination (Aβ40 sandwich ELISA). In kind it is cell-based. The conditions noted are these: Chinese hamster ovary cells over-expressing human APP695 with London and Swedish mutations, 24 h. The procedure: The potency of compounds against memapsin 2 activity was determined in a cellular assay of Aβ production. […] Chinese hamster ovary cells that over-express human APP695 with the London and Swedish mutations were seeded in multi-well plates at 10% confluency. Compounds were dissolved in DMSO to concentrations near 1 mM, and diluted into culture media to a final concentration near 4 μM (final 0.4% DMSO). Compounds were diluted serially and applied to cells in multi-well plates 48 h after seeding. Incubation was continued in 5% CO2 at 37 degrees C. for 24 h. Aliquots were removed and assayed for Aβ40 content using a sandwich ELISA (BioSource International). Amount of Aβ40 over the range of concentration of compounds, relative to control incubations, were fit to a 4-parameter IC50 model.
Take `CCC(Cn1nc(C)cc1C)C(=O)NC(CNC(=O)OC(C)(C)C)C(=O)NC(CC(C)C)C(O)CC(C)C(=O)NC(C(=O)NCc1nc(C)cs1)C(C)C` (centres unmarked) [tert-butyl 2-(2-((3,5-dimethyl-1H-pyrazol-1-yl)methyl)butanamido)-3-(5-hydroxy-2,7-dimethyl-8-(3-methyl-1-((4-methylthiazol-2-yl)methylamino)-1-oxobutan-2-ylamino)-8-oxooctan-4-ylamino)-3-oxopropylcarbamate]: the IC50 was < 6 µM. The molecule `Cc1cc(C)n(CC(N=[N+]=[N-])C(=O)NC(CNC(=O)OC(C)(C)C)C(=O)NC(CC(C)C)C(O)CC(C)C(=O)NC(C(=O)NCC(C)C)C(C)C)n1` (centres unmarked) [tert-butyl 2-(2-azido-3-(3,5-dimethyl-1H-pyrazol-1-yl)propanamido)-3-(5-hydroxy-8-(1-(isobutylamino)-3-methyl-1-oxobutan-2-ylamino)-2,7-dimethyl-8-oxooctan-4-ylamino)-3-oxopropylcarbamate] yielded a 50% inhibitory concentration (IC50) of 6 to 100 µM. Still for that read-out and setting: the value for `Cc1nc(CC(C)C(=O)NC(CNC(=O)OC(C)(C)C)C(=O)NC(CC(C)C)C(O)CC(C)C(=O)NC(C(=O)NCC(C)C)C(C)C)c(C)o1` (centres unmarked) [tert-butyl 2-(3-(2,5-dimethyloxazol-4-yl)-2-methylpropanamido)-3-(5-hydroxy-8-(1-(isobutylamino)-3-methyl-1-oxobutan-2-ylamino)-2,7-dimethyl-8-oxooctan-4-ylamino)-3-oxopropylcarbamate] was < 6 µM; that for `COC(Cn1nc(C)cc1C)C(=O)NC(CNC(=O)OC(C)(C)C)C(=O)NC(CC(C)C)C(O)CC(C)C(=O)NC(C(=O)NCC(C)C)C(C)C` (centres unmarked) [tert-butyl 2-(3-(3,5-dimethyl-1H-pyrazol-1-yl)-2-methoxypropanamido)-3-(5-hydroxy-8-(1-(isobutylamino)-3-methyl-1-oxobutan-2-ylamino)-2,7-dimethyl-8-oxooctan-4-ylamino)-3-oxopropylcarbamate] was > 100 µM. `Cc1csc(CC(C)C(=O)NC(CNC(=O)OC(C)(C)C)C(=O)NC(Cc2cc(F)cc(F)c2)C(O)CC(C)C(=O)NC(C(=O)NCC(C)C)C(C)C)n1` (centres unmarked) [tert-butyl 3-(1-(3,5-difluorophenyl)-3-hydroxy-6-(1-(isobutylamino)-3-methyl-1-oxobutan-2-ylamino)-5-methyl-6-oxohexan-2-ylamino)-2-(2-methyl-3-(4-methylthiazol-2-yl)propanamido)-3-oxopropylcarbamate] had a half-maximal inhibitory concentration (IC50) of 6 to 100 µM. For `Cc1csc(CC(C)C(=O)NC(CNC(=O)OC(C)(C)C)C(=O)NC(Cc2ccccc2)C(O)CC(C)C(=O)NC(C(=O)NCC(C)C)C(C)C)n1` (centres unmarked) [tert-butyl 3-(3-hydroxy-6-(1-(isobutylamino)-3-methyl-1-oxobutan-2-ylamino)-5-methyl-6-oxo-1-phenylhexan-2-ylamino)-2-(2-methyl-3-(4-methylthiazol-2-yl)propanamido)-3-oxopropylcarbamate], the IC50 lay within 6 to 100 µM. The same measure, in the same setting: under `Cc1csc(CC(C)C(=O)NC(CNC(=O)OC(C)(C)C)C(=O)NC(CC(C)C)C(O)CC(C)C(=O)NC(C(=O)NCc2ccncc2)C(C)C)n1` (centres unmarked) [tert-butyl 3-(5-hydroxy-2,7-dimethyl-8-(3-methyl-1-oxo-1-(pyridin-4-ylmethylamino)butan-2-ylamino)-8-oxooctan-4-ylamino)-2-(2-methyl-3-(4-methylthiazol-2-yl)propanamido)-3-oxopropylcarbamate] stands < 6 µM; under `CCC(CC(O)C(CC(C)C)NC(=O)C(CNC(=O)OC(C)(C)C)NC(=O)C(C)Cc1nc(C)cs1)C(=O)NC(C(=O)NCC(C)C)C(C)C` (centres unmarked) [tert-butyl 3-(5-hydroxy-7-(1-(isobutylamino)-3-methyl-1-oxobutan-2-ylcarbamoyl)-2-methylnonan-4-ylamino)-2-(2-methyl-3-(4-methylthiazol-2-yl)propanamido)-3-oxopropylcarbamate], < 6 µM. Take `CCC(Cc1nc(C)cs1)C(=O)NC(CNC(=O)OC(C)(C)C)C(=O)NC(CC(C)C)C(O)CC(C)C(=O)NC(C(=O)NCC(C)C)C(C)C` (centres unmarked) [tert-butyl 3-(5-hydroxy-8-(1-(isobutylamino)-3-methyl-1-oxobutan-2-ylamino)-2,7-dimethyl-8-oxooctan-4-ylamino)-2-(2-((4-methylthiazol-2-yl)methyl)butanamido)-3-oxopropylcarbamate]: the IC50 is < 6 µM.

`Cc1csc(CC(C)C(=O)NC(CNC(=O)OC(C)(C)C)C(=O)NC(CC(C)C)C(O)CC(C)C(=O)NC(C(=O)NCC(C)C)C(C)C)n1` (centres unmarked) [tert-butyl 3-(5-hydroxy-8-(1-(isobutylamino)-3-methyl-1-oxobutan-2-ylamino)-2,7-dimethyl-8-oxooctan-4-ylamino)-2-(2-methyl-3-(4-methylthiazol-2-yl)propanamido)-3-oxopropylcarbamate]: the IC50 is < 6 µM. Still for that read-out and setting: under `Cc1csc(CC(C)C(=O)NC(CNC(=O)OC(C)(C)C)C(=O)NC(CC(C)C)C(O)CC(C)C(=O)NC(C(=O)NN(C)C)C(C)C)n1` (centres unmarked) [tert-butyl 3-(8-(1-(2,2-dimethylhydrazinyl)-3-methyl-1-oxobutan-2-ylamino)-5-hydroxy-2,7-dimethyl-8-oxooctan-4-ylamino)-2-(2-methyl-3-(4-methylthiazol-2-yl)propanamido)-3-oxopropylcarbamate] stands < 6 µM; under `Cc1cc(C)n(CC(C)C(=O)NC(CNC(=O)OC2CCOC2)C(=O)NC(CC(C)C)C(O)CC(C)C(=O)NC(C(=O)NCC(C)C)C(C)C)n1` (centres unmarked) [tetrahydrofuran-3-yl 2-(3-(3,5-dimethyl-1H-pyrazol-1-yl)-2-methylpropanamido)-3-(5-hydroxy-8-(1-(isobutylamino)-3-methyl-1-oxobutan-2-ylamino)-2,7-dimethyl-8-oxooctan-4-ylamino)-3-oxopropylcarbamate], 6 to 100 µM; under `Cc1csc(CC(C)C(=O)NC(CNC(=O)OC2CCOC2)C(=O)NC(CC(C)C)C(O)CC(C)C(=O)NC(C(=O)NCC(C)C)C(C)C)n1` (centres unmarked) [tetrahydrofuran-3-yl 3-(5-hydroxy-8-(1-(isobutylamino)-3-methyl-1-oxobutan-2-ylamino)-2,7-dimethyl-8-oxooctan-4-ylamino)-2-(2-methyl-3-(4-methylthiazol-2-yl)propanamido)-3-oxopropylcarbamate], < 6 µM.

Source of the values: patent US20080125467A1, “Amino-Containing Compounds Which Inhibit Memapsin 2 Beta-Secretase Activity and Methods of Use Thereof” (priority 2004, published 2008).
